Test results: patent US20240139185A1, “COMPOUNDS THAT PARTICIPATE IN COOPERATIVE BINDING AND USES THEREOF” (Revolution Medicines, Inc., priority 2018, published 2024)

What was measured:
BRAF-GTP-KRASWT complex = target: T1, BRAF-GTP-KRASWT complex (Homo sapiens, UniProt P01116+P62937); assay: KRAS-BRAF complex disruption TR-FRET with wild-type KRAS (G12C specificity); type: biochemical; conditions: with CYPA
T1 construct: substitute His6-KRas WT-GTP (1-169) for His6-KRas G12C-GTP (1-169); 500 nM of tagless CypA (1-165)
Description: (§1) In this example, TR-FRET was used to measure the compound-facilitated disruption of a KRAS-BRAF complex. A mixture of tagless Cyclophilin A, His6-KRAS G12C-GMP-PNP, and GST-BRAF RAS binding domain was added to a 384-well assay plate containing compounds of the invention and incubated for 3 hours. A mixture of Anti-His Eu-W1024 and anti-GST allophycocyanin was then added and the reaction was incubated for an additional 1.5 hours. TR-FRET signal was read on an EnVision microplate reader (Perkin Elmer, Ex 320 nm, Em 665/615 nm). Compounds that facilitate disruption of a KRAS_BRAF complex were identified as those eliciting a decrease in the TR-FRET ratio relative to DMSO control wells. To determine the presenter-dependence of the compound-mediated KRAS-BRAF complex disruption, Cyclophilin A was left out of the initial incubation (see Table 5). To determine G12C specificity of the compound-mediated KRAS-BRAF complex disruption, wild-type KRAS was used instead of G12C KRAS (see Table 5).
(§2) Reagents and Instrument • Tagless CYPA; 519 μM in PBS buffer, pH 7.4 • GST BRAF; 110 μM in PBS buffer, pH 7.4 • His6-KRASG12C-GMP-PNP; 50 μM in PBS buffer, pH 7.4 • His6-KRASWT-GMP-PNP; 40 μM in PBS buffer, pH 7.4 • Anti-His Eu-W1024 (LANCE® Eu-W1024; Perkin Elmer) • Anti-GST allophycocyanin (Anti-GST IgG conjugated to SureLight®-Allophycocyanin; Perkin Elmer; Product Number AD0059G) • Test compounds, 10 mM in 100% DMSO • EnVision (Perkin Elmer) • Combi MultiDrop liquid dispenser with 8-channel small volume cassette • 384-well ProxiPlate (black)
(§3) Experimental Protocol • 1. Use Mosquito to dispense 100 nL/well of compounds (varying concentration in […]) into 384-well black ProxiPlate to make assay-ready-plate (ARP). • 2. Make assay buffer containing 25 mM Hepes pH 7.3, 100 mM NaCl, 5 mM MgCl2, 0.05% BSA, and 0.002% Tween-20. • 3. Make PRE-MIX A: delivers final concentrations of 50 nM of His6-KRas G12C-GTP (1-169) and 500 nM of tagless CypA (1-165) in assay buffer. • a. […] Read on EnVision (Ex: 320 nm; Em1: 615 nm; Em2: 665 nm). • 8. […]

[1] = target: T2, BRAF-GTP-KRAS-G12C complex (Homo sapiens, UniProt P01116, G12C); assay: KRAS-BRAF complex disruption TR-FRET without CYPA (presenter dependence); type: biochemical
T2 construct: 50 nM of His6-KRas G12C-GTP (1-169)
Description: as §1, §2, §3

cyclophilin A (CYPA) = cyclophilin A (CYPA) (Homo sapiens, UniProt P62937); assay: CYPA-compound binary complex formation by SPR; conditions: read-out: CYPA Binding Affinity
Summary of the method: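 Steady-state fit of SPR responses gave binding affinity. Analyte series: 50 μM downward, 2-fold, 10 points, running buffer HBS-P+ (0.05% Tween20, pH7.4, 2% DMSO), 60 s on/60 s off. Surface: biotinylated CypA-Avi captured at 4 μg/ml against a reference cell, regenerated with NaOH/guanidine.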

pERK in H358 cells = assay: pERK inhibition in H358 cells; type: cell-based, human; conditions: 4 hours treatment, read-out: Cellular pERK inhibition
Summary of the method: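 Human lung cancer H358 cells in RPMI/10% FBS were exposed to compound or DMSO for 4 h. Fixed and permeabilized cells were stained overnight at 4 C with anti-phospho-ERK1/2 (Thr202/Tyr204). Near-infrared imaging read the pERK signal at 800 nm, with DRAQ5 at 700 nm.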

T1 sequence (P01116 1-169 isoform P01116-2): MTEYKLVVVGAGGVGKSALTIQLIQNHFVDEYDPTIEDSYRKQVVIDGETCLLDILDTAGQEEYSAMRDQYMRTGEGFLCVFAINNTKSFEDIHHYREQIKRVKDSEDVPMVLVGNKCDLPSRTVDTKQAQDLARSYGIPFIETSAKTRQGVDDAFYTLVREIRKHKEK
T1 sequence (P62937 whole entry): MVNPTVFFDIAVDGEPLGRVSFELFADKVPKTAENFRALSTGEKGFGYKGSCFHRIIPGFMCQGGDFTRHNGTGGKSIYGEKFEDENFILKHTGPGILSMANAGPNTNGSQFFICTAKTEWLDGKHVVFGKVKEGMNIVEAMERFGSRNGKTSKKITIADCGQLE
T2 sequence (P01116 1-169 isoform P01116-2 G12C, one chain of several): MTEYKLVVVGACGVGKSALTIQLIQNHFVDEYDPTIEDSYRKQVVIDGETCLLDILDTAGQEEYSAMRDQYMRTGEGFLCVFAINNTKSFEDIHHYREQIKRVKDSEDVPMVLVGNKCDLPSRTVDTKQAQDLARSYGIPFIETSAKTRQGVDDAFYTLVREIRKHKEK
Sequence of cyclophilin A (CYPA) (P62937 whole entry): as the sequence (P62937 whole entry) above

| IC50 (BRAF-GTP-KRASWT complex) [µM] | IC50 [1] [µM] | Kd (cyclophilin A (CYPA)) [µM] | IC50 (pERK in H358 cells) [µM] | Compound |
| --- | --- | --- | --- | --- |
| > 30 | > 30 | ≤ 5 | 1 to 10 | CC1COC(=O)C2CCCN(N2)C(=O)C(NC(=O)C(C(C)C)N(C)C(=O)C2CN(C(=O)CCl)C2)Cc2cc(O)cc(c2)-c2ccc3c(c2)c(cn3CC2COC2)C1 (mixture of isomers) [Compound 226] |
| > 30 | > 30 | ≤ 5 | 1 to 10 | CC1COC(=O)C2CCCN(N2)C(=O)C(NC(=O)C(C(C)C)N(C)C(=O)C2CN(C(=O)CCl)C2)Cc2cc(O)cc(c2)-c2ccc3c(S(C)(=O)=O)cn(c3c2)C1 (single isomer, unassigned) [Compound 110] |
